This is an account of results in ChEMBL document CHEMBL2074025 (AIDS, 2002).

Each structure is given as a SMILES string.

Common to all, as to assay type: functional, cell-based
Data set [1] has as its target T1, Multidrug resistance-associated protein 1 (Homo sapiens, UniProt P33527). Briefly: TP_TRANSPORTER: inhibition of Calcein efflux (Calcein: 0.05 micro;M, Amprenavir: 0.02 uM) in UMCC-1/VP cells.
Data set [2] has as its target T1, Multidrug resistance-associated protein 1. Briefly: TP_TRANSPORTER: inhibition of Calcein efflux (Calcein: 0.05 micro;M, Indinavir: 0.114 uM) in UMCC-1/VP cells.
For data set [3] the target is unchanged. Briefly: TP_TRANSPORTER: inhibition of Calcein efflux (Calcein: 0.05 micro;M, Lamivudine: 0.55 uM) in UMCC-1/VP cells.
Data set [4] has the same target. The experiment in a line: TP_TRANSPORTER: inhibition of Calcein efflux (Calcein: 0.05 micro;M, Zidovudine: 0.02 uM) in UMCC-1/VP cells.

T1 sequence (P33527 whole entry): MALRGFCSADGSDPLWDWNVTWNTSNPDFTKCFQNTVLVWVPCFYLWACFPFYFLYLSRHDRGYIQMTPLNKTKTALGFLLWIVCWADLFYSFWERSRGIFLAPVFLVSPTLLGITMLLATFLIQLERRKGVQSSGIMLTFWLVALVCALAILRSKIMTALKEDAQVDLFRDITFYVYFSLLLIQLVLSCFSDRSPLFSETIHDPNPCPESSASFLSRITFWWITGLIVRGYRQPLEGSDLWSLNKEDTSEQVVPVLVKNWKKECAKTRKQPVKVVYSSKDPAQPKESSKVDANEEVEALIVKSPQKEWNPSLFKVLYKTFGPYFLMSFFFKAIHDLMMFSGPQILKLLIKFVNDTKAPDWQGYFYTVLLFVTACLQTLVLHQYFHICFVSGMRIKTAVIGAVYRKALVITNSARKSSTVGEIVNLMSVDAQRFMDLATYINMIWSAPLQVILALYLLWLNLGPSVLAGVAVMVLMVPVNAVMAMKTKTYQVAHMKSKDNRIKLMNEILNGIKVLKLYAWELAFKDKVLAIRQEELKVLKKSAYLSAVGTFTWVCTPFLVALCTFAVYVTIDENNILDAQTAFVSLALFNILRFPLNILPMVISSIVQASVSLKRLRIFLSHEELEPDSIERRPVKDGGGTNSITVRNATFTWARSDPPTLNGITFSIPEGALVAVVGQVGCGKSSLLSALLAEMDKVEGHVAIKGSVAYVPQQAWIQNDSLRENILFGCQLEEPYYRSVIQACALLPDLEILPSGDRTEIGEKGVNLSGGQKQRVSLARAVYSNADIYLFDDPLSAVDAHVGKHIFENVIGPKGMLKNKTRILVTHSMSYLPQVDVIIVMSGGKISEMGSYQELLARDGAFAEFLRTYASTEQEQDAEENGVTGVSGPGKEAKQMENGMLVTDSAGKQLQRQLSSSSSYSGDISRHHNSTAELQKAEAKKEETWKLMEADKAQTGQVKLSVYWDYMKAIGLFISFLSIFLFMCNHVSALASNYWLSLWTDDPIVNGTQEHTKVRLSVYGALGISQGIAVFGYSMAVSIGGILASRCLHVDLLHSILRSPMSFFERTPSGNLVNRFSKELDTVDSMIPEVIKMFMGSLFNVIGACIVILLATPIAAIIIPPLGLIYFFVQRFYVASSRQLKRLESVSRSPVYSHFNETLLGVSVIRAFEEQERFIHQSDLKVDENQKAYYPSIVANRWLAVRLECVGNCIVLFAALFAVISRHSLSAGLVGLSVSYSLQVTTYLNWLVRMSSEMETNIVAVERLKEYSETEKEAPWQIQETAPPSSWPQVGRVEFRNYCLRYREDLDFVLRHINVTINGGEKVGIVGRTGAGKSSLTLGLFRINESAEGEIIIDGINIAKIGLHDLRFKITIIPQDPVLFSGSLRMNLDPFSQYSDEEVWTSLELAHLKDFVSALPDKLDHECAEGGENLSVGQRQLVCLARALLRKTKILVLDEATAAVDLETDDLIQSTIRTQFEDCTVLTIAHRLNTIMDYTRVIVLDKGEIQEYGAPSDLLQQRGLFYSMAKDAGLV

Turning to `CC(C)CN(C[C@@H](O)[C@H](Cc1ccccc1)NC(=O)O[C@H]1CCOC1)S(=O)(=O)c1ccc(N)cc1`, in data set [1], the Activity result was “is not an inhibitor [-]”.

Take `CC(C)(C)NC(=O)[C@@H]1CN(Cc2cccnc2)CCN1C[C@@H](O)C[C@@H](Cc1ccccc1)C(=O)N[C@H]1c2ccccc2C[C@H]1O.O`: the Activity result in data set [2] was “is not an inhibitor [-]”. For the compound `Nc1ccn([C@@H]2CS[C@H](CO)O2)c(=O)n1` [LAMIVUDINE], in data set [3], the Activity entry is “is not an inhibitor [-]”. Turning to `Cc1cn([C@H]2C[C@H](N=[N+]=[N-])[C@@H](CO)O2)c(=O)[nH]c1=O` [ZIDOVUDINE], the Activity entry in data set [4] is “is not an inhibitor [-]”.
